Data published in article PMC8775721, “Pharmacological Dissection of the Crosstalk between NaV and CaV Channels in GH3b6 Cells” (International Journal of Molecular Sciences, 2022).

Target: T1, NaV1.3 (Rattus norvegicus, UniProt P08104)
T1 construct: gene Scn3a
Experiment: manual whole-cell patch-clamp of endogenous INa in GH3b6 cells
Type: cell-based
Conditions: read-out: % reduction of INa amplitude at 1 μM

T1 sequence (P08104 whole entry): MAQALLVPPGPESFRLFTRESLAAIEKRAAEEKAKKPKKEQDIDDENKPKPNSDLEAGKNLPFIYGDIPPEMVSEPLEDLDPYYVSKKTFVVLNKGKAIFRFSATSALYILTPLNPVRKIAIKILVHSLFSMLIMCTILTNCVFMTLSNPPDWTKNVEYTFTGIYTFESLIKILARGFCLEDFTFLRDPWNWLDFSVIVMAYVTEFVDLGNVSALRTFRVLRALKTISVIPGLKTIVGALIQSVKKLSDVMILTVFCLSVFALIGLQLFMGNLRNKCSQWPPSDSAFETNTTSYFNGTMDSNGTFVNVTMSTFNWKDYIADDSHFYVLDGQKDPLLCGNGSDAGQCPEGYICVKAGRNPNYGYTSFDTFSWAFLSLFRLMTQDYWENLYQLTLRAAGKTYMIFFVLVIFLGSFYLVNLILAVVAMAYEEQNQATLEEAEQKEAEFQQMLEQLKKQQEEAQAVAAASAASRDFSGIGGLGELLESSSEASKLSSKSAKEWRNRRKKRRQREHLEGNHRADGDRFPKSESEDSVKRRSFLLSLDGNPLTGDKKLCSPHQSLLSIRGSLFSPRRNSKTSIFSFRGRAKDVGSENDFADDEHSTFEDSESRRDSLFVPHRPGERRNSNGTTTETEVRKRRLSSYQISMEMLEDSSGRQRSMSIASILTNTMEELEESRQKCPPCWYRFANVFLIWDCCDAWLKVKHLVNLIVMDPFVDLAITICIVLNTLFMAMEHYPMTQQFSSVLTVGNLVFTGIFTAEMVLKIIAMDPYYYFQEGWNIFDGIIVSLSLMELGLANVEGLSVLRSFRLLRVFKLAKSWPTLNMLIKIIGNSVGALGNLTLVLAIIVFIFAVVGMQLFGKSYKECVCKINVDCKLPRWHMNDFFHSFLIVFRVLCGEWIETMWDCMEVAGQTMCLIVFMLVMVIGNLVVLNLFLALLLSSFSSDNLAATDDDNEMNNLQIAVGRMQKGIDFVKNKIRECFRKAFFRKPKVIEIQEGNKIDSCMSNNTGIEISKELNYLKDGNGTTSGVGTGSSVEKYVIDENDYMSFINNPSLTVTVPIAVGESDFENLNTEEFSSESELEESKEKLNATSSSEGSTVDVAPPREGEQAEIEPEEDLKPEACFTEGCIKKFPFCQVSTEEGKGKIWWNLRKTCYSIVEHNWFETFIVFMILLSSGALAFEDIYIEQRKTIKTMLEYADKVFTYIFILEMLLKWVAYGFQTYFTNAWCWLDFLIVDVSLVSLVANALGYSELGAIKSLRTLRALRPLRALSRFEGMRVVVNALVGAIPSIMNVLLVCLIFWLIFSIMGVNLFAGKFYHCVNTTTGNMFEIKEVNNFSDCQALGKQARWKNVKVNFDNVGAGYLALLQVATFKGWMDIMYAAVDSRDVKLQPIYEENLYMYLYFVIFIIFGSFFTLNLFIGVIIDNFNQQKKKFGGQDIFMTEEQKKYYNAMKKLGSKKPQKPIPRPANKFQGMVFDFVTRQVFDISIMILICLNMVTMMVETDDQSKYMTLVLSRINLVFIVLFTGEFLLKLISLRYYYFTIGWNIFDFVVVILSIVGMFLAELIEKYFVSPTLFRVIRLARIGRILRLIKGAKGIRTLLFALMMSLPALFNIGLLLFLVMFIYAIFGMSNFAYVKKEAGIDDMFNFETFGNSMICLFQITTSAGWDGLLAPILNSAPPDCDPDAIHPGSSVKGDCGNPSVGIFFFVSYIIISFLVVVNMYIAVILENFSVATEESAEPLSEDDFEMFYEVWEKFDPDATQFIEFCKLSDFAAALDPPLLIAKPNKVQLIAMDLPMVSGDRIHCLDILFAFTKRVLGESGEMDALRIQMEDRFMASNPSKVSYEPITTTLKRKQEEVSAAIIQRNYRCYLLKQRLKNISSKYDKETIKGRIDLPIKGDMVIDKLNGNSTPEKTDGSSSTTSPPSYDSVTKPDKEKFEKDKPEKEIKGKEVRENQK

SMILES: O=C(Nc1ccc(S(=O)(=O)Nc2nccs2)cc1)C(c1ccccc1)c1ccccc1 [ICA-121431]
- inhibition at 1 µM: 50%
